The results in this text go back to a melting point compilation (Tetko et al.; mined from patent text by program, amines drawn as free bases though some values may be those of a salt).

Each structure is given as a SMILES string.

Turning to `CCOC(=O)C(C)(C)Oc1cccc2c1CC(O)C(SC)C2` (stereo unspecified), the melting point lay in the range of 132 to 134 °C.
`COCCCNC(=O)C1CCN(C(=O)c2[nH]c(C)c(-c3nc4ccc(C(=O)c5ccccc5)cc4[nH]3)c2C)CC1` displayed a melting point of 289 to 291 °C.
`COc1ccc(NC(=O)c2nc3c(s2)C(=O)C=C(NCCCN(C)CCCNC2=CC(=O)c4sc(C)nc4C2=O)C3=O)cc1` had a melting point of 141 to 142 °C.
For `CCNc1nc(C)c(-c2ccnc(Nc3cc(Cl)c(N4CCOCC4)c(Cl)c3)n2)s1` the value was more than 300 °C.
`O=C(N[C@H]1CCCNC1=O)c1c(F)cccc1F` had a melting point of 190 to 194 °C.
For `CCOC(=O)C1COc2c(C(=O)c3ccccc3)cccc21` (stereo unspecified) the value was 42 to 43 °C; for `ClCc1nc2cc(Br)ccc2s1`, 107 °C.
`COC(=O)CCc1ccccc1-c1[nH]c2cccc3c2c1CCNC3=O`: the melting point lay within 201 to 202 °C.
For `CCCc1nc2c(N)nc3cccnc3c2n1CCCCN(OC)C(=O)Nc1ccccc1` the value was 155 to 156 °C.
`Cc1cc(C)n2ncc(F)c2n1` yielded a melting point of 129 to 130 °C.
For `O=C1c2ccccc2C(=O)N1Cc1nc(C2CC2)no1` the value was 115 °C; for `COC(=O)c1cc(OCc2nc(-c3ccccc3)sc2C)no1`, 89 to 90 °C; for `OC(c1cccc(-c2nnc(Nc3ccc(Cl)c(Cl)c3)s2)c1)c1cccc(C(F)(F)F)c1` (stereo unspecified), 191 to 192 °C.
The compound `COc1ccc(COCCC(C)=O)cc1` had a melting point of 48 to 49 °C.
Turning to `CS(=O)(=O)c1ccc(-n2cnc3ccc(-c4nnc(CCc5cccc(C(F)(F)F)c5)o4)cc32)cc1`, the melting point was 204 to 205 °C.
For `CC(C)(C)OC(=O)NCCC(=O)c1c(Cl)cccc1[Si](C)(C)C` the value was 51 to 52 °C.
In turn, `COC(=O)COc1c(C(=O)OC)n(-c2ccccc2)c2ccc(OC)cc12` came in with a melting point of 97 to 100 °C.
For `Sc1ncc2c(n1)-c1ccc(Cl)cc1C(c1ccccc1Cl)=NC2` the value was 232 to 234 °C; for `O=C(O)c1c2n(c3cc(N4CCN(CCO)CC4)c(F)cc3c1=O)CCS2`, 256 °C; for `O=C(O)c1cn(C2CC2)c2c(F)c(N3CCC(CNCCF)C3)c(F)cc2c1=O` (stereo unspecified), 134 to 138 °C.
The compound `CCCCC(CC)C(=O)Nc1ccc2ccn(Cc3ccc(C(=O)OC(=O)N(c4ccccc4)c4ccccc4)cc3OC)c2c1` (stereo unspecified) registered a melting point of 159 to 162 °C.
For `O=[N+]([O-])c1ccc(Oc2ccc(C(c3ccc(Oc4ccc([N+](=O)[O-])c(O)c4)cc3)(C(F)(F)F)C(F)(F)F)cc2)cc1O` the value was 148 to 151 °C; for `Cc1cc2nc(Cl)c(Cl)nc2c(N)c1C`, 178 to 180 °C; for `O=C(O)c1cc(Sc2nc3cc(Cl)ccc3[nH]2)c2[nH]c(=O)[nH]c2c1`, 326 to 330 °C.
In turn, `Cc1ccc(C2=CCC(=O)CC2)cc1` yielded a melting point of 72 to 74 °C.
Regarding `CN(c1cccc2cc(C(=O)NCC(C)(C=O)SCc3ccccc3)[nH]c12)S(=O)(=O)c1cccs1` (stereo unspecified), the melting point lay within 149 to 150 °C.
Compound `COc1ccc2c(CNCCCCCCCCCCC(=O)O)cc3cc4c(cc3c2c1)OCO4` had a melting point of 146 to 148 °C.
For the compound `CN1CCCC(Nc2ccnc3cc(Cl)ccc23)C1` (racemic), the melting point is 149 to 150 °C.
For `O=C(Cc1ccccc1)NN(C1=NCCS1)c1ccccc1` the value was 121 to 124 °C; for `Cc1ccc(NC(=O)c2cc(Cl)ccc2NCC2CCN(C3CCS(=O)(=O)CC3)CC2)nc1`, 154 to 156 °C; for `CCCCCCCCCCCCCCCCCCOc1cc(OCC(=O)OC)cc(C(=O)N(CC(=O)OC)CC(=O)OC)c1`, 53 to 55 °C.
The compound `CCOC(=O)CCc1cn(Cc2ccc(OCc3coc(-c4ccccc4)n3)cc2)nc1OCC` had a melting point of 80 to 81 °C.
Consider `CSc1ccc2ncc(N)c(-c3ccccc3)c2c1`, for which the melting point lay within 135 to 137 °C.
The compound `OCCC1CCc2cc(OCc3ccc4ccccc4c3)ccc2C1` (stereo unspecified) gave a melting point of 90 to 91 °C.
The compound `CC=CC(=O)OCC(C)(Sc1cc2ccccc2n1C)c1ccccc1` (stereo unspecified) registered a melting point of 56 to 57 °C.
The compound `CCCc1c(OCCCCCOc2ccc3nc(CCC(=O)O)ccc3c2CCC(=O)O)ccc2c1OCCC2=O` returned a melting point of 123 to 128 °C.
In turn, `CCOC(=O)C(C)(C)Oc1ccc(C(=O)c2cccs2)cc1` showed a melting point of 45 °C.
As to `COC(=O)Oc1ccc([N+](=O)[O-])cc1`, the melting point was 111 to 112 °C.
For the compound `CC1(C)C=Nc2cc3[nH]c(-c4ccncc4)cc3cc21`, the melting point is more than 300 °C.
For `CCCc1nc2c(N)nc3cc(C)ccc3c2o1` the value was 188 to 189 °C; for `Nc1nc2ccccc2c2c1ncn2CCCCNC(=O)CCc1ccccc1`, 148 to 150 °C; for `COc1c(C)cnc(CSc2nc3cc(C(F)(F)F)ccc3[nH]2)c1C`, 163 °C.
The same measure for `CS(=O)(=O)c1cc(CCC(=O)O)nc(-c2nc(=O)c3ccc(Cl)cc3s2)c1`: 229 °C.
For the compound `CNC(=O)C(=NOC)c1cc(C)c(C)cc1C(ON)=C(C)c1cccc(C(F)(F)F)c1`, the melting point was in the range of 129 to 134 °C.
For `O=C1Nc2ccc(Cl)cc2C1(O)c1cccc(F)c1F` (stereo unspecified) the value was 248 °C.
The compound `CCn1nnn(CCN2CCC(=C3c4sccc4CCn4ccnc43)CC2)c1=O` had a melting point of 175 °C.
Compound `CCCCNC(=O)[C@@H](C[C@H](O)[C@H](CC1CCCCC1)NC(=O)[C@H](Cc1cscn1)NC(=O)[C@@H](CC(=O)N(C)Cc1ccccc1)Cc1ccccc1)C(C)C` yielded a melting point of 155 to 156 °C.
Regarding `CC1(C)CCc2ncc([N+](=O)[O-])cc2C1`, the melting point was 99 to 101 °C.
On to `COc1ccc(Br)cc1CC1CCCn2c1nc(-c1ccncn1)cc2=O` (racemic), for which the melting point is 178 to 180 °C.
For `COc1cc(C(C)=O)ccc1OCCCN1CCN(c2n[nH]c3ccccc23)CC1` the value was 155 to 157 °C.
`O=c1cc[nH]c2cn[nH]c12` displayed a melting point of more than 320 °C.
For the compound `OC(c1ccc(Br)cc1)(c1ccc(Br)cc1)c1cncnc1`, the melting point lay within 89 to 90 °C.
For `O=C1c2ccccc2C(=O)N1CCCCN1CCN(c2csc3cc(F)ccc23)CC1` the value was 94 to 95 °C; for `Nc1nc(-c2ccc(Cl)cc2)c(CCO)c2ncnn12`, 207 to 208 °C.
Turning to `Cc1ccc(-c2coc3cc(O)c(O)cc3c2=O)cc1`, the melting point was determined as 280 °C.
`CC(=O)Nc1c(C)c(C)c2c(c1C)CC(C)(CN1CCC(c3ccccc3)CC1)O2` (stereo unspecified) returned a melting point of 94 to 96 °C.
With `CCCn1c(=O)c2nc(C(C)Cc3ccc(OCC(=O)O)cc3)[nH]c2n(CCC)c1=O` (stereo unspecified), the melting point fell in the range of 168 to 170 °C.
The compound `COc1ccc(C2=NNC(=O)[C@H]3CCCC[C@@H]23)cc1OC1CCCC1` (relative stereo) yielded a melting point of 175 to 176 °C.
`Cc1csc2c(Sc3nnc(N)s3)ncnc12` gave a melting point of 221 to 223 °C.
The compound `Cn1c(-c2ccc(O)c(F)c2)cc2ncccc2c1=O` came in with a melting point of 182 to 184 °C.
The same measure for `Cc1cc(CCc2cc(C)cc(C(C)(C)C)c2O)c(O)c(C(C)(C)C)c1`: 104 to 105 °C; for `Fc1cc(-n2cc(CN=C=S)nn2)cc(F)c1N1CCOCC1`: 135 °C.
On to `CON=C(C(=O)OC)c1c(C)cccc1CBr`, for which the melting point lay within 76 to 78 °C.
In turn, `CC1=C(C(=O)OC(C)(C)C)C(c2cccc([N+](=O)[O-])c2)N(C(=O)N(C)C)C(=O)N1` (stereo unspecified) had a melting point of 187 to 188 °C.
With `O=C(O)c1ccc(C=Cc2ccc(C(=O)O)cc2)cc1`, the melting point was more than 280 °C.
Compound `CCCCNC(=O)[C@@H]1C[C@]2(NC(=O)N(CCCCl)C2=O)c2cc(F)ccc2O1` returned a melting point of 148 to 150 °C.
For the compound `Cc1nc(NC(=O)c2cccc(Cl)c2)sc1C(=O)NCc1ccccc1`, the melting point lay within 178 to 179 °C.
In turn, `CCOC(=O)CCC(=O)c1ccc(CCN(CC=Cc2ccc(Cl)cc2)S(=O)(=O)c2ccc(Cl)cc2)cc1` returned a melting point of 100 to 101 °C.
In the case of `CCCCOc1c(OC)c(OC)cc(C)c1C(=O)c1c(Cl)cccc1Cl`, the melting point turned out to be 70 °C.
Turning to `CC(NC(=O)C1=C(C(=O)Nc2cc(OC3CCCCC3)c(Cl)cc2F)CCCC1)c1ccccc1` (stereo unspecified), the melting point is 156 to 159 °C.
For `CCSCc1cccc(-c2nc(=O)c3ccccc3s2)n1` the value was 142 to 144 °C.
Regarding `CN(C)S(=O)(=O)c1cc(-c2csc(=Nc3ccc(O)cc3)n2C)ccc1Cl`, the melting point was 188 to 190 °C.
`O=C(c1sc2c(ccc(=O)n2-c2ccccc2)c1Br)N1CC(O)C1` returned a melting point of 199 °C.
As to `COc1cccc(OC)c1C(=O)Nc1nnc(-c2ccc(NC(C)=O)cc2)s1`, the melting point fell in the range of 211 to 213 °C.
The same measure for `O=C(Nc1ccc(Oc2ccnc(NC3CCCCC3)n2)c2ccccc12)c1cc(F)cc(N2CCCCC2)c1`: 118 to 120 °C.
The compound `Cc1cccc(-c2nc(N)sc2-c2ccc(F)c(-c3cnn(C)c3)c2)n1` showed a melting point of 153 to 155 °C.
The compound `Cc1nc(N2CCN(Cc3ccc(F)cc3)C2=O)sc1C(=O)NCc1cccnc1` registered a melting point of 177 to 179 °C.
As for `CC1CCC(C)(C)C2=C1CC(O)C(C)(O)C2` (stereo unspecified), the melting point was 121 to 123 °C.
With `COc1ccc(C=Nc2c3c(nc4ccccc24)CCCC3)cc1`, the melting point lay in the range of 160 to 162 °C.
For the compound `c1ccc(COc2ccccc2OCCNCCCNc2ncccn2)cc1`, the melting point was 90.1 °C.
On to `Nc1cc(Oc2ccc3c(c2)OCCN3)ncn1`, for which the melting point lay within 140 to 141 °C.
Compound `CC(C)=CCOc1c(-c2ccc(S(C)(=O)=O)cc2)cnn(-c2cccc(Cl)c2)c1=O` showed a melting point of 113 to 115 °C.
The same measure for `Cc1nccn1-c1nc(-c2ccc(Cl)cc2)c(CCCC(=O)O)o1`: 211 to 212 °C; for `O=C1C=CC(=O)N1c1ccc(Oc2ccc3ccc(Oc4ccc(N5C(=O)C=CC5=O)cc4)cc3c2)cc1`: 162 to 164 °C.
Consider `COc1ccc2cc(-c3cccnc3)ccc2n1`, for which the melting point is 89 to 91 °C.
For the compound `Nc1cc2c(=O)cc(C(=O)O)[nH]c2ccc1=O`, the melting point is more than 250 °C.
